# Measurements published in US10047092B2 (Janssen Pharmaceutica NV, priority 2013, dated 2018).
# Biological target: P2X7 (Homo sapiens (Human), UniProt Q99572)
# Assay: P2X7 antagonism in human PBMCs (IL-1β release, LPS + Bz-ATP)
# Type: cell-based
# Settings: 10 μM test compound, LPS 30 ng/ml + 0.5 mM Bz-ATP
# Procedure: P2X7 Antagonism in Human Peripheral Blood Mononuclear Cells (PBMCs) and Mouse/Human Whole Blood.
# Human blood was collected using a blood donor program. PBMCs were isolated from blood using a Ficoll density gradient technique. Briefly, blood was laid on Ficoll solution and centrifuged at RT for 20 minutes at 2000 rpm. The buffy layer (between red blood cells and plasma) was carefully collected by aspiration, washed with PBS and centrifuged again at 1500 rpm for 15 minutes. The resulting cell pellet was washed and plated on 96 well-plates for experiments. For the Mouse/Human Whole Blood experiments, 150 μl of either mouse or human blood was platted on 96 well-plates. Lipopolysaccharide (LPS) (30 ng/ml) was added to each well and incubated for 1 hour. Test compounds were then added and incubated for 30 minutes. The P2X7 agonist, 2′(3′)-O-(4-benzoylbenzoyl) adenosine 5′-triphosphate (Bz-ATP) was then added at a final concentration of 0.5 mM (PBMC) or 1 mM (blood). Cells were incubated for an additional 1.5 hours. At that point, supernatant was collected and stored for IL-1β assay using manufacturer's protocol for enzyme-linked immunosorbent assay (ELISA). Data was expressed as percent control, where control is defined as the difference in IL-113 release in LPS+Bz-ATP samples and LPS only samples. Data was plotted as response (% control) versus concentration to generate IC50 values. […] In Table 2, when the data cell has been left blank, it is intended to mean that the compound was not tested in that assay.
# Sequence of P2X7 (Q99572 whole entry): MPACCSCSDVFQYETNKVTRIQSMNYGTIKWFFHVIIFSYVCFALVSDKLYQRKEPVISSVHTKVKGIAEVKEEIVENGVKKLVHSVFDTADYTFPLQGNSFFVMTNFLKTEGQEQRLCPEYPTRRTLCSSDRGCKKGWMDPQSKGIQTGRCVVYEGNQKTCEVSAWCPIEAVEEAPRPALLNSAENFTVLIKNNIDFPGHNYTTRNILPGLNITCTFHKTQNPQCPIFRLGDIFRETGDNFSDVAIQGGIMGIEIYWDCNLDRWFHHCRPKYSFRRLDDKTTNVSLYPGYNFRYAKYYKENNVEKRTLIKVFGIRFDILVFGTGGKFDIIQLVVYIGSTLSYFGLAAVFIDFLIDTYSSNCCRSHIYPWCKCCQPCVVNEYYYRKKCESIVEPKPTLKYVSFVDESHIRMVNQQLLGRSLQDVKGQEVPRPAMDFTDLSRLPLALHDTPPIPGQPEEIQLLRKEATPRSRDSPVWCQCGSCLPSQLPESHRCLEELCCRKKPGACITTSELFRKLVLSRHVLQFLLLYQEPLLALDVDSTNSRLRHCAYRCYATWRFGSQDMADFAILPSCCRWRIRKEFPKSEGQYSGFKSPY
row,SMILES,PBMC 10 μM (% control)
1,"C[C@H]1Cn2c(nnc2-c2cnccn2)C(=O)N1Cc1cccc(Cl)c1Cl [Example 13, (6S)-7-(2,3-Dichlorobenzyl)-6-methyl-3-pyrazin-2-yl-6,7-dihydro[1,2,4]triazolo[4,3-a]pyrazin-8(5H)-one]",15.4
2,"CC[C@H]1Cn2c(nnc2-c2cnccn2)C(=O)N1Cc1cccc(C(F)(F)F)c1Cl [Example 71, (6S)-7-[2-Chloro-3-(trifluoromethyl)benzyl]-6-ethyl-3-pyrazin-2-yl-6,7-dihydro[1,2,4]triazolo[4,3-a]pyrazin-8(5H)-one]",1.2
3,"C[C@H]1Cn2c(nnc2-c2cnccn2)C(=O)N1Cc1cccc(C(F)(F)F)c1Cl [Example 16, (6S)-7-[2-Chloro-3-(trifluoromethyl)benzyl]-6-methyl-3-pyrazin-2-yl-6,7-dihydro[1,2,4]triazolo[4,3-a]pyrazin-8(5H)-one]",13.4
4,CC(c1cccc(C(F)(F)F)c1Cl)N1C(=O)c2nnc(-c3cnccn3)n2C[C@@H]1C (stereo partly drawn) [Example 93],4.5

# Same assay, conditions: P2X7, 10 μM test compound, LPS 30 ng/ml + 0.5 mM Bz-ATP, read-out: PBMC 10 μM (% control)
row,SMILES,remaining activity at 10 µM [%]
1,"O=C1c2nnc(-c3ncccn3)n2C[C@H](C2CC2)N1Cc1cccc(C(F)(F)F)c1Cl (single isomer, unassigned) [Example 66, (6S*)-7-[2-Chloro-3-(trifluoromethyl)benzyl]-6-cyclopropyl-3-pyrimidin-2-yl-6,7-dihydro[1,2,4]triazolo[4,3-a]pyrazin-8(5H)-one]",20.7
2,"O=C1c2nnc(-c3ncccn3)n2C[C@@H](C2CC2)N1Cc1cccc(C(F)(F)F)c1Cl (single isomer, unassigned) [Example 65, (6R*)-7-[2-Chloro-3-(trifluoromethyl)benzyl]-6-cyclopropyl-3-pyrimidin-2-yl-6,7-dihydro[1,2,4]triazolo[4,3-a]pyrazin-8(5H)-one]",15.9
